Laboratory results taken from US20250186391A1, “ORAL COMPLEMENT FACTOR D INHIBITORS” (BioCryst Pharmaceuticals, Inc., priority 2019, published 2025).
pIC50: −log10 of the molar value.

Target: Factor D (Homo sapiens (Human), UniProt P00746)
Assay: Factor D esterolytic assay
Type: biochemical
Conditions: Z-Lys-SBzl substrate, 100 mM HEPES, 500 mM NaCl, pH 7.5, 10% DMSO; tested a minimum of three times; read-out: Measured Ki (IC50) Value for Compounds: IC50
Method in brief: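 Chromogenic thioesterase read-out: Z-Lys-SBzl (1.29 mM) hydrolysis by human Factor D, thiol detected with DTNB at 405 nm (690 nm background subtracted) for 600 s. Run in 100 mM HEPES, 500 mM NaCl, pH 7.5, 10% DMSO, substrate added immediately or after room-temperature preincubation. IC50 from percent inhibition versus enzyme alone, n≥3.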

Factor D, sequence (P00746 26-253): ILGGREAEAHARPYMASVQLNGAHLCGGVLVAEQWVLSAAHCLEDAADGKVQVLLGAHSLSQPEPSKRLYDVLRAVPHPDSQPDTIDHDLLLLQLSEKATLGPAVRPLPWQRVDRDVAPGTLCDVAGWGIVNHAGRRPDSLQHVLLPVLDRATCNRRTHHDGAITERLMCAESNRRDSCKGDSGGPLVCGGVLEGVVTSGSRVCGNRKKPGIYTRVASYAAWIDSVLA

Row | pIC50 | Structure (SMILES)
1 | > 6.00 | CC(C)c1ccccc1-c1cc(-c2cccc(CN)c2)cc2c(COc3ccccc3CC(=O)O)coc12 [Compound 219c, 2-(2-((5-(3-(aminomethyl)phenyl)-7-(2-isopropylphenyl)benzofuran-3-yl)methoxy)phenyl)acetic acid]
2 | > 6.00 | NCc1cccc(-c2ccc3c(c2)c(COc2ccccc2CC(=O)O)nn3-c2cccnc2)c1 [Compound 264c, 2-(2-((5-(3-(aminomethyl)phenyl)-1-(pyridin-3-yl)-1H-indazol-3-yl)methoxy)phenyl)acetic acid]
3 | < 5.00 | NCc1cccc(-c2cc(N)c3oc(COc4ccccc4CC(=O)O)cc3c2)c1 [Compound 235g, 2-(2-((7-amino-5-(3-(aminomethyl)phenyl)benzofuran-2-yl)methoxy)phenyl)acetic acid]
4 | > 6.00 | NCc1cccc(-c2ccc3occ(COc4cc(C5CC5)ccc4CC(=O)O)c3c2)c1 [Compound 111d, 2-(2-((5-(3-(aminomethyl)phenyl)benzofuran-3-yl)methoxy)-4-cyclopropylphenyl)acetic acid]
5 | > 6.00 | CC(C)n1nc(COc2ccccc2CC(=O)O)c2cc(-c3cccc([C@@H](C)N)c3)ccc21 [Compound 323b, (R)-2-(2-((5-(3-(1-aminoethyl)phenyl)-1-isopropyl-1H-indazol-3-yl)methoxy)phenyl)acetic acid]
6 | > 6.00 | N[C@H](CO)c1cccc(-c2ccc3occ(COc4ccccc4CC(=O)O)c3c2)c1 [Compound 51c, (S)-2-(2-((5-(3-(1-amino-2-hydroxyethyl)phenyl)benzofuran-3-yl)methoxy)phenyl)acetic acid]
7 | > 6.00 | NCc1nccc(-c2ccc3occ(COc4ccccc4CC(=O)O)c3c2)c1F [Compound 50d, 2-(2-((5-(2-(aminomethyl)-3-fluoropyridin-4-yl)benzofuran-3-yl)methoxy)phenyl)acetic acid]
8 | > 6.00 | CC(C)(C)c1oc2ccc(-c3cccc(CN)c3)cc2c1COc1ccccc1CC(=O)O [Compound 171i, 2-(2-((5-(3-(aminomethyl)phenyl)-2-(tert-butyl)benzofuran-3-yl)methoxy)phenyl)acetic acid]
9 | > 6.00 | Cc1cccc(CC(=O)O)c1OCc1nn(C(C)C)c2ccc(-c3cccc(CN)c3)cc12 [Compound 306c, 2-(2-((5-(3-(aminomethyl)phenyl)-1-isopropyl-1H-indazol-3-yl)methoxy)-3-methylphenyl)acetic acid]
10 | > 6.00 | CC(C)n1nc2ccc(-c3cccc(CN)c3)cc2c1COc1ccccc1CC(=O)O [Compound 183e, 2-(2-((5-(3-(aminomethyl)phenyl)-2-isopropyl-2H-indazol-3-yl)methoxy)phenyl)acetic acid]
11 | > 6.00 | N#Cc1ccc(CC(=O)O)c(OCc2coc3ccc(-c4cccc(CN)c4)cc23)c1 [Compound 57d, 2-(2-((5-(3-(aminomethyl)phenyl)benzofuran-3-yl)methoxy)-4-cyanophenyl)acetic acid]
12 | > 6.00 | NCc1cccc(-c2ccc3occ(COc4cccc(F)c4CC(=O)O)c3c2)c1 [Compound 126f, 2-(2-((5-(3-(aminomethyl)phenyl)benzofuran-3-yl)methoxy)-6-fluorophenyl)acetic acid]
13 | > 6.00 | Cc1ccc(CC(=O)O)c(OCc2nn(C(C)C)c3ccc(-c4cccc(CN)c4)cc23)c1 [Compound 254c, 2-(2-((5-(3-(aminomethyl)phenyl)-1-isopropyl-1H-indazol-3-yl)methoxy)-4-methylphenyl)acetic acid]
14 | < 5.00 | NCc1cccc(-c2ccc3c(COc4ccccc4CC(=O)O)coc3c2)c1 [Compound 94d, 2-(2-((6-(3-(aminomethyl)phenyl)benzofuran-3-yl)methoxy)phenyl)acetic acid]
15 | > 6.00 | COc1ccc(CC(=O)O)c(OCc2c(F)oc3ccc(-c4cccc(CN)c4)cc23)c1 [Compound 172f, 2-(2-((5-(3-(aminomethyl)phenyl)-2-fluorobenzofuran-3-yl)methoxy)-4-methoxyphenyl)acetic acid]
16 | > 6.00 | Cc1ccc(CC(=O)O)c(OCc2nn(C)c3ccc(-c4cccc(CN)c4)cc23)c1 [Compound 206c, 2-(2-((5-(3-(aminomethyl)phenyl)-1-methyl-1H-indazol-3-yl)methoxy)-4-methylphenyl)acetic acid]
17 | > 6.00 | NCc1cccc(-c2cc(COc3cccc(CC(=O)O)c3)cc3cc(COc4ccccc4CC(=O)O)oc23)c1 [Compound 16e, 2-(3-((7-(3-(aminomethyl)phenyl)-2-((2-(carboxymethyl)phenoxy)methyl)benzofuran-5-yl)methoxy)phenyl)acetic acid]

Row | pIC50 | Structure (SMILES)
18 | > 6.00 | NCc1cccc(-c2ccc3c(c2)c(COc2ccccc2CC(=O)O)nn3-c2ccncc2)c1 [Compound 265c, 2-(2-((5-(3-(aminomethyl)phenyl)-1-(pyridin-4-yl)-1H-indazol-3-yl)methoxy)phenyl)acetic acid]
19 | > 6.00 | NCc1cccc(-c2ccc3sc(C(=O)O)c(COc4ccccc4CC(=O)O)c3c2)c1 [Compound 56d, 5-(3-(aminomethyl)phenyl)-3-((2-(carboxymethyl)phenoxy)methyl)benzo[b]thiophene-2-carboxylic acid]
20 | > 6.00 | NCc1cccc(-c2ccc3oc(C(N)=O)c(COc4ccccc4CC(=O)O)c3c2)c1 [Compound 103c, 2-(2-((5-(3-(aminomethyl)phenyl)-2-carbamoylbenzofuran-3-yl)methoxy)phenyl)acetic acid]
21 | > 6.00 | NCc1cccc(-c2ccc3occ(Cc4cccc(CC(=O)O)c4O)c3c2)c1F [Compound 42c, 2-(3-((5-(3-(aminomethyl)-2-fluorophenyl)benzofuran-3-yl)methyl)-2-hydroxyphenyl)acetic acid]
22 | > 6.00 | NCc1cccc(-c2cc(CNCC3CC3)c3occ(COc4ccccc4CC(=O)O)c3c2)c1 [Compound 209c, 2-(2-((5-(3-(aminomethyl)phenyl)-7-(((cyclopropylmethyl)amino)methyl)benzofuran-3-yl)methoxy)phenyl)acetic acid]
23 | > 6.00 | COc1ccc(CC(=O)O)c(OCc2c(C)oc3ccc(-c4cc(F)cc(CN)c4)cc23)c1 [Compound 239c, 2-(2-((5-(3-(aminomethyl)-5-fluorophenyl)-2-methylbenzofuran-3-yl)methoxy)-4-methoxyphenyl)acetic acid]
24 | > 6.00 | NCc1cccc(-c2ccc3occ(COc4c(CC(=O)O)cccc4C(=O)O)c3c2)c1 [Compound 301d, 2-((5-(3-(aminomethyl)phenyl)benzofuran-3-yl)methoxy)-3-(carboxymethyl)benzoic acid]
25 | > 6.00 | NCc1cccc(-c2cc(CN3CCC(F)(F)CC3)c3occ(COc4ccccc4CC(=O)O)c3c2)c1 [Compound 89e, 2-(2-((5-(3-(aminomethyl)phenyl)-7-((4,4-difluoropiperidin-1-yl)methyl)benzofuran-3-yl)methoxy)phenyl)acetic acid]
26 | > 6.00 | Cn1nc(NC(=O)c2ccccc2CC(=O)O)c2cc(-c3cccc(CN)c3)ccc21 [Compound 74d, 2-(2-((5-(3-(aminomethyl)phenyl)-1-methyl-1H-indazol-3-yl)carbamoyl)phenyl)acetic acid]
27 | 5.00 to 6.00 | CCCC(C(=O)O)c1ccccc1OCc1nn(C(C)C)c2ccc(-c3cccc(CN)c3)cc12 (stereo not drawn) [Compound 246f, 2-(2-((5-(3-(aminomethyl)phenyl)-1-isopropyl-1H-indazol-3-yl)methoxy)phenyl)pentanoic acid]
28 | > 6.00 | NCc1cccc(-c2ccc3occ(COc4cc(Br)ccc4CC(=O)O)c3c2)c1 [Compound 192b, 2-(2-((5-(3-(aminomethyl)phenyl)benzofuran-3-yl)methoxy)-4-bromophenyl)acetic acid]
29 | > 6.00 | NCc1cccc(-c2ccc3oc(CO)c(COc4ccccc4CC(=O)O)c3c2)c1 [Compound 112c, 2-(2-((5-(3-(aminomethyl)phenyl)-2-(hydroxymethyl)benzofuran-3-yl)methoxy)phenyl)acetic acid]
30 | > 6.00 | NCc1cccc(-c2ccc3scc(COc4ccccc4CC(=O)O)c3c2)c1 [Compound 101d, 2-(2-((5-(3-(aminomethyl)phenyl)benzo[b]thiophen-3-yl)methoxy)phenyl)acetic acid]
31 | > 6.00 | NCc1cccc(-c2cc(OCCF)c3occ(COc4ccccc4CC(=O)O)c3c2)c1 [Compound 248f, 2-(2-((5-(3-(aminomethyl)phenyl)-7-(2-fluoroethoxy)benzofuran-3-yl)methoxy)phenyl)acetic acid]
32 | > 6.00 | NCc1nccc(-c2cc3c(COc4ccccc4CC(=O)O)coc3c3ccoc23)c1F [Compound 289d, 2-(2-((5-(2-(aminomethyl)-3-fluoropyridin-4-yl)benzo[1,2-b:3,4-b′]difuran-3-yl)methoxy)phenyl)acetic acid]
33 | > 6.00 | CC(C)Cn1cc(-c2cc(-c3cccc(CN)c3)cc3c(COc4ccccc4CC(=O)O)coc23)cn1 [Compound 129c, 2-(2-((5-(3-(aminomethyl)phenyl)-7-(1-isobutyl-1H-pyrazol-4-yl)benzofuran-3-yl)methoxy)phenyl)acetic acid]
34 | > 6.00 | CC(C)n1nc(COc2c(C#N)cccc2CC(=O)O)c2cc(-c3cccc(CN)c3)ccc21 [Compound 305c, 2-(2-((5-(3-(aminomethyl)phenyl)-1-isopropyl-1H-indazol-3-yl)methoxy)-3-cyanophenyl)acetic acid]

Row | Structure (SMILES) | pIC50
35 | CC(C)(C)OC(=O)N(Cc1cc(-c2cccc(CN)c2)cc2c(COc3ccccc3CC(=O)O)coc12)CC(F)(F)F [Compound 177g, 2-(2-((5-(3-(aminomethyl)phenyl)-7-(((tert-butoxycarbonyl)(2,2,2-trifluoroethyl)amino)methyl)benzofuran-3-yl)methoxy)phenyl)acetic acid] | > 6.00
36 | CC(C)(C)OC(=O)Nc1ccc(CC(=O)O)c(OCc2coc3ccc(-c4cccc(CN)c4)cc23)c1 [Compound 83h, 2-(2-((5-(3-(aminomethyl)phenyl)benzofuran-3-yl)methoxy)-4-((tert-butoxycarbonyl)amino)phenyl)acetic acid] | > 6.00
